In patent US20030091555A1, “Bactericidal composition containing peptide and chelating agent” (NATIONAL AGRICULTURAL RESEARCH ORGANIZATION, priority 2001, published 2003):
≈ marks a conversion by molar mass, not a printed value.

Assays:
[1] = test system: E. coli; conditions: high concentration (10 mM); cited from earlier work
[2] = test system: V. parahaemolyticus; conditions: high concentration (10 mM); cited from earlier work
[3] = test system: Salmonella typhimurium JCM 6977; assay: MIC/MBC by viable count after 1 day cultivation; format: cell-based; conditions: for MBC: Salmonella enterica; for synergistic effects with thionin, compared with EDTA-2Na: with alpha-type thionin of wheat 10 μg/mL
Method: (§1) Bacillus cereus was inoculated into a sensitive measurement medium (manufactured by Nissui Pharmaceutical Co., Ltd., Tokyo, Japan), and other bacteria such as food poisoning bacteria were inoculated into an LB medium (1% polypeptone, 0.5% yeast extract, 0.5% sodium chloride, pH 7.2) and incubated at 37° C. for 1 day.
(§2) Then, after adding predetermined amounts of thionin and EDTA, the bacteria were inoculated so that the concentration of bacteria was about 1×10^6 cells/mL. After cultivating the bacteria for 1 day for other bacteria, the viable count was measured by a method of diluted plate culture. The concentration in which the viable count was decreased to 1/100 or less was defined as minimum bactericidal concentration (MBC) and the concentration in which the viable count was not increased was defined as minimum inhibitory concentration (MIC). The results obtained are shown in Tables 1, 2 and 3, as well as in FIG. 1.

[4] = test system: Escherichia coli 06 JCM 5491; assay: MIC/MBC by viable count after 1 day cultivation; format: cell-based; conditions: for MBC: Escherichia coli; for synergistic effects with thionin, compared with EDTA-2Na: with alpha-type thionin of wheat 10 μg/mL
Method: as §1, §2

[5] = as food additive; cited from earlier work
[6] = test system: test bacteria (food poisoning bacteria); assay: MIC/MBC, text summary over the test bacteria; format: cell-based; conditions: for MBC: added alone
Method: as §1, §2

[7] = test system: Bacillus cereus JCM 2152; assay: MIC/MBC by viable count after 1 day cultivation; format: cell-based; conditions: sensitive measurement medium, 37° C.
Method: as §1, §2

[8] = test system: Bacillus cereus IFO 15305; assay: MIC/MBC by viable count after 1 day cultivation; format: cell-based; conditions: sensitive measurement medium, 37° C.
Method: as §1, §2

[9] = test system: Vibrio parahaemolyticus IFO 12711; assay: MIC/MBC by viable count after 1 day cultivation; format: cell-based; conditions: LB medium, 37° C.
Method: as §1, §2

[10] = test system: Salmonella enteritidis IFO 3313; assay: MIC/MBC by viable count after 1 day cultivation; format: cell-based; conditions: LB medium, 37° C.
Method: as §1, §2

[11] = test system: Escherichia coli 01:K1:H7 JCM 1649; assay: MIC/MBC by viable count after 1 day cultivation; format: cell-based; conditions: LB medium, 37° C.
Method: as §1, §2

[12] = molecular target: T1, trypsin (Bos taurus, UniProt P00760); conditions: cited from earlier work
T1 construct: gene PRSS1
T1 sequence (P00760 24-246): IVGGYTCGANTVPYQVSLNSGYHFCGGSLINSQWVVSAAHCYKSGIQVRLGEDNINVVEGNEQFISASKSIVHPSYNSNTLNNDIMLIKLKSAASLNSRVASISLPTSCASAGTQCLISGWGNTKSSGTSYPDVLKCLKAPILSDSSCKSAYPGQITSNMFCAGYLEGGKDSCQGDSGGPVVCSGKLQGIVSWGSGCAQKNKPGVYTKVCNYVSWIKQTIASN

[13] = test system: guinea pig; conditions: administered once with 103 to 229 mg/kg body weight, observed for 7 days; cited from earlier work
[14] = EDTA-2Na added alone, LB medium, 37° C., 1 day
[15] = thionin added alone, LB medium, 37° C., 1 day

## O=C(O)CN(CCN(CC(=O)O)CC(=O)O)CC(=O)O [EDTA, ethylenediaminetetraacetic acid]
[1]
  antibacterial activity: shows antibacterial activity
[2]
  antibacterial activity: shows antibacterial activity
[3]; Thionin (10 μg/mL) +: with alpha-type thionin of wheat
  MBC: 0.1 nM (≈ 0.0292 ng/mL)
[3]; Thionin (10 μg/mL) −: without alpha-type thionin of wheat
  MBC: 5 nM (≈ 1.46 ng/mL)
[3]
  synergistic effects with thionin, compared with EDTA-2Na: identical to or higher than that of EDTA-2Na
[4]; JCM5491, Thionin (10 μg/mL) +: with alpha-type thionin of wheat
  MBC: 1 nM (≈ 0.292 ng/mL)
[4]; JCM5491, Thionin (10 μg/mL) −: without alpha-type thionin of wheat
  MBC: 5 nM (≈ 1.46 ng/mL)
[4]
  synergistic effects with thionin, compared with EDTA-2Na: identical to or higher than that of EDTA-2Na
[5]
  ADI (Acceptable Daily Intake): 2.5 mg/kg body weight

## O=C([O-])CN(CCN(CC(=O)[O-])CC(=O)O)CC(=O)O.[Na+].[Na+] [EDTA-2Na, EDTA disodium]
[6]; 10 μg/mL alpha-type thionin of wheat added simultaneously, food poisoning bacteria
  MBC of EDTA-2Na as compared with the addition of EDTA-2Na alone: decreased
[6]; Salmonella sp. and E. coli
  MBC: ≥ 10 mM
[6]; other bacteria (not Salmonella sp., E. coli)
  MBC: ≤ 1 mM
[7]; EDTA-2Na added alone
  MBC EDTA-2Na: 0.5 mM
[8]; EDTA-2Na added alone
  MBC EDTA-2Na: 0.2 mM
[9]; EDTA-2Na added alone
  MBC EDTA-2Na: 1 mM
[10]; EDTA-2Na added alone
  MBC EDTA-2Na: 50< mM
[11]; EDTA-2Na added alone
  MBC EDTA-2Na: 50 mM
[3]; [14]
  MBC EDTA-2Na: 20 mM
[4]; [14]
  MBC EDTA-2Na: 10 mM

## O=C([O-])CN(CCN(CC(=O)[O-])CC(=O)[O-])CC(=O)[O-].[Na+].[Na+].[Na+].[Na+] [EDTA-4Na, EDTA-tetrasodium salt]
[3]
  synergistic effects with thionin, compared with EDTA-2Na: identical to or higher than that of EDTA-2Na
[4]
  synergistic effects with thionin, compared with EDTA-2Na: identical to or higher than that of EDTA-2Na

## thionin [reference compound]
[12]
  decomposition by a digestive enzyme: rapid decomposition
[7]; thionin added alone
  MIC Thionin: 100 µg/mL
[8]; thionin added alone
  MIC Thionin: 100< μg/mL
[9]; thionin added alone
  MIC Thionin: 20 µg/mL
[10]; thionin added alone
  MIC Thionin: 100< μg/mL
[11]; thionin added alone
  MIC Thionin: 100< μg/mL
[3]; [15]
  MIC Thionin: 30 µg/mL
[4]; [15]
  MIC Thionin: 100 µg/mL
[13]
  abnormality after administration: no abnormality was observed
